From US20250368648A1, “MULTI-CYCLIC IRAK AND FLT3 INHIBITING COMPOUNDS AND USES THEREOF” (CHILDREN'S HOSPITAL MEDICAL CENTER, priority 2022, published 2025)

What was measured:
Format in all cases: biochemical
Details in all cases: HotSpot functional assay, isolated kinase enzyme, 33P-ATP
IRAK4 = target: T1, IRAK4 (Homo sapiens, UniProt Q9NWZ3); test: RBC HotSpot Kinase Assay, IRAK4; parameters: purchased RBC (Reaction Biology) HotSpot assay
T1 sequence (Q9NWZ3 1-460): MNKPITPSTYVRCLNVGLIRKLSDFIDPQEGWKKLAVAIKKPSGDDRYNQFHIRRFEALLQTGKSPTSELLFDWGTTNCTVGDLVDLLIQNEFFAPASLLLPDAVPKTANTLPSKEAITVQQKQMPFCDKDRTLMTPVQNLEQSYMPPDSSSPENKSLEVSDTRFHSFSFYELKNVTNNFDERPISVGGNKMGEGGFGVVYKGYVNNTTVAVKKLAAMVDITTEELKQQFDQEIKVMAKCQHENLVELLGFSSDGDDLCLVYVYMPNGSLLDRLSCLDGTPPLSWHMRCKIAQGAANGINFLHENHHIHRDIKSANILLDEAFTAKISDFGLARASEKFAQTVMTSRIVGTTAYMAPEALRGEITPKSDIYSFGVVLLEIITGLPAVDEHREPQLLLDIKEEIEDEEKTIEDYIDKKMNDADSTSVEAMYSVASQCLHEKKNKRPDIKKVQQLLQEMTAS
From the text: (§1) This assay uses the isolated kinase enzyme. This assay is very useful for determining competition of the inhibitor for ATP and/or substrates and for measuring the kinetics of enzyme inhibition. […] Unlike kinase binding assays that measure competition for ATP, the HotSpot Kinase Assay is a functional assay that measures catalytic activity; as such it measures relative functional potency regardless of the mechanism of enzyme inhibition. This assay uses the form of the various enzymes that are easiest to express, which may not necessarily be the form of the enzyme that exist in the cell. (Sometimes the carboxy terminus has been truncated to aid in expression, or, if it is a receptor kinase, the enzyme itself is isolated from the other parts of the receptor that are involved in regulating kinase activity.)
(§2) The reagent used was as follows: Base Reaction buffer; 20 mM Hepes (pH 7.5), 10 mM MgCl2, 1 mM EGTA, 0.01% Brij35, 0.02 mg/mi BSA, 0.1 mM Na3VO4, 2 mM DTT, 1% DMSO. Required cofactors were added individually to each kinase reaction.
(§3) The reaction procedure was as follows: • 1) Substrates were prepared in freshly prepared Reaction Buffer. • 2) Any required cofactors were delivered to the substrate solution above. • 3) Kinase was delivered into the substrate solution and gently mixed. • 4) Compounds were delivered in 100% DMSO into the kinase reaction mixture by Acoustic technology (Echo550, nanoliter range), followed by incubation for 20 min at room temp. • 5) ^33P-ATP was delivered into the reaction mixture to initiate the reaction. • 6) The mixture was incubated for 2 hours at room temperature. • 7) Kinase activity was detected by P81 filter-binding method.

IRAK1 = target: T2, IRAK1 (Homo sapiens, UniProt P51617); test: RBC HotSpot Kinase Assay, IRAK1
T2 construct: purchased RBC (Reaction Biology) HotSpot assay
From the text: as §1, §2, §3

FLT3 = target: T3, FLT3 (Homo sapiens, UniProt P36888); test: RBC HotSpot Kinase Assay, FLT3; parameters: purchased RBC (Reaction Biology) HotSpot assay
T3 sequence (P36888 27-993): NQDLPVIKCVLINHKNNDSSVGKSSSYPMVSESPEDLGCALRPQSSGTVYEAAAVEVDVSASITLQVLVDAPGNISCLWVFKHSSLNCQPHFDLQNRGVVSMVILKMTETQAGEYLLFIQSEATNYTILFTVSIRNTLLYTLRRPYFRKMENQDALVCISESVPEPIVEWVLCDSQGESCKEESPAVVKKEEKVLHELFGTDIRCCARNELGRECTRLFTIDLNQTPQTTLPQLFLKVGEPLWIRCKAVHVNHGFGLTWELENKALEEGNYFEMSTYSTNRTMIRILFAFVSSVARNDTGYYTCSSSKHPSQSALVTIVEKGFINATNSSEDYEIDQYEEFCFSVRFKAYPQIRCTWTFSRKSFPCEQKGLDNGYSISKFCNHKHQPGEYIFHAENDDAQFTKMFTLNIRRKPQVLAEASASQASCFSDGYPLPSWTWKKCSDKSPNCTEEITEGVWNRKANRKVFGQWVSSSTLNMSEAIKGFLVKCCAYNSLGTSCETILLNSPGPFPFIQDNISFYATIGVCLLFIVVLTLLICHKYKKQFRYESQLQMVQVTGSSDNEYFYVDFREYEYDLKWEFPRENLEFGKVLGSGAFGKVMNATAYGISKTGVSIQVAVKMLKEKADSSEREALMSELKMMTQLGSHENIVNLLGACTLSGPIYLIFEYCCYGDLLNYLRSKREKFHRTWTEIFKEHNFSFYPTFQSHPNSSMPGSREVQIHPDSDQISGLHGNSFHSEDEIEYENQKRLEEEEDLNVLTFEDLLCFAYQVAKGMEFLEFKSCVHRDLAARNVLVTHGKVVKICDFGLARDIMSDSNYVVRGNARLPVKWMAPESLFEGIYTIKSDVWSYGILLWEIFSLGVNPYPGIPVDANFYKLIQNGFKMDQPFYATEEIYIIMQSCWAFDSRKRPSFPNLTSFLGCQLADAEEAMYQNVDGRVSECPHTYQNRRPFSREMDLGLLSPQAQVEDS
From the text: as §1, §2, §3

T2 sequence (P51617 whole entry): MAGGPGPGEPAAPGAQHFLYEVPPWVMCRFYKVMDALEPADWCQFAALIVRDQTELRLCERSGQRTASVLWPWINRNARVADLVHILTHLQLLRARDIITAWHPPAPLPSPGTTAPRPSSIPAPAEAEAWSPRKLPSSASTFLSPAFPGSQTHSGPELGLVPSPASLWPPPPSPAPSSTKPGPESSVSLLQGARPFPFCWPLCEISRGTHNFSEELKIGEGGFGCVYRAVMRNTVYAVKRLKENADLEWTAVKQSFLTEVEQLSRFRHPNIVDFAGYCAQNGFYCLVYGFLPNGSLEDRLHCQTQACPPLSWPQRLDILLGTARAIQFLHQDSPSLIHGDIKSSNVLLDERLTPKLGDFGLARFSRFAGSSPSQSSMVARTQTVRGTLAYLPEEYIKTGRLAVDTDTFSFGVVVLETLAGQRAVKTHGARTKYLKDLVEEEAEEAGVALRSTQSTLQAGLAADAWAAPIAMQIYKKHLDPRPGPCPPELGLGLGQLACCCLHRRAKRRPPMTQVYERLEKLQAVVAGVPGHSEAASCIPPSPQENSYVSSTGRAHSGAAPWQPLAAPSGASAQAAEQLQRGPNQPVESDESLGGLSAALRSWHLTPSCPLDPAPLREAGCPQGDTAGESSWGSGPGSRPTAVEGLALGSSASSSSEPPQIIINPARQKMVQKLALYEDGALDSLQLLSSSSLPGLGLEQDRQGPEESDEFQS

| SMILES | IC50 (IRAK4) [nM] | IC50 (IRAK1) [nM] | IC50 (FLT3) [nM] |
| --- | --- | --- | --- |
| COc1cc2ncc(-c3nc(N[C@@H]4CCCNC4)c(F)cc3F)n2nc1C1CC2(CCC2)C1 [Compound 11a, (R)-3,5-difluoro-6-(7-methoxy-6-(spiro[3.3]heptan-2-yl)imidazo[1,2-b]pyridazin-3-yl)-N-(piperidin-3-yl)pyridin-2-amine] | 16 | 30 | < 0.5 |
| COc1cc2ncc(-c3nc(N[C@@H]4CCCNC4)c(F)cc3F)n2nc1N1CCCC1=O [Compound 23a, (R)-1-(3-(3,5-difluoro-6-(piperidin-3-ylamino)pyridin-2-yl)-7-methoxyimidazo[1,2-b]pyridazin-6-yl)pyrrolidin-2-one] | 48 | 348 | 2 |
| COc1cc2ncc(-c3nc(N[C@H]4CNC[C@@H]4F)c(F)cc3F)n2nc1N1CCCC1=O [Compound 24a, 1-(3-(3,5-difluoro-6-(((3S,4S)-4-fluoropyrrolidin-3-yl)amino)pyridin-2-yl)-7-methoxyimidazo[1,2-b]pyridazin-6-yl)pyrrolidin-2-one] | 11 | 186 | 1 |
| COc1cc2ncc(-c3ccc(C#N)c(N[C@H]4CNC[C@@H]4F)n3)n2nc1C1CC1 [Compound 27a, 6-(6-cyclopropyl-7-methoxyimidazo[1,2-b]pyridazin-3-yl)-2-(((3S,4S)-4-fluoropyrrolidin-3-yl)amino) nicotinonitrile] | < 0.5 | 5 | < 0.5 |
| COc1cc2ncc(-c3nc(N[C@@H]4CCCNC4)ccc3C#N)n2nc1C1CC1 [Compound 30a, (R)-2-(6-cyclopropyl-7-methoxyimidazo[1,2-b]pyridazin-3-yl)-6-(piperidin-3-ylamino)nicotinonitrile] | 110 | 2290 | 48 |
| COc1cc2ncc(-c3nc(N[C@H]4CNCC[C@@H]4F)ccc3C#N)n2nc1C1CC1 [Compound 31a, 2-(6-cyclopropyl-7-methoxyimidazo[1,2-b]pyridazin-3-yl)-6-(((3S,4S)-4-fluoropiperidin-3-yl)amino)nicotinonitrile] | 10 | 1110 | 43 |
| COc1ccc(N[C@@H]2CCCNC2)nc1-c1cnc2cc(OC)c(C3CC3)nn12 [Compound 32a, (R)-6-(6-cyclopropyl-7-methoxyimidazo[1,2-b]pyridazin-3-yl)-5-methoxy-N-(piperidin-3-yl)pyridin-2-amine] | 853 | > 10000 | 80 |
| COc1ccc(-c2cnc3cc(OC)c(C4CC4)nn23)nc1N[C@H]1CNC[C@@H]1F [Compound 33a, 6-(6-cyclopropyl-7-methoxyimidazo[1,2-b]pyridazin-3-yl)-N-((3S,4S)-4-fluoropyrrolidin-3-yl)-3-methoxypyridin-2-amine] | 47 | > 10000 | < 0.5 |
| COc1ccc(-c2cnc3cc(OC)c(C4CC4)nn23)nc1N[C@@H]1CCCNC1 [Compound 34a, (R)-6-(6-cyclopropyl-7-methoxyimidazo[1,2-b]pyridazin-3-yl)-3-methoxy-N-(piperidin-3-yl)pyridin-2-amine] | 202 | > 10000 | < 0.5 |

Further lines, results first:

| IC50 (IRAK4) [nM] | IC50 (IRAK1) [nM] | IC50 (FLT3) [nM] | SMILES |
| --- | --- | --- | --- |
| 9 | 190 | 0.6 | COc1cc2ncc(-c3nc(N[C@H]4CNC[C@@H]4F)c(F)cc3F)n2nc1C1CC(C)(C)C1 [Compound 8a, 6-(6-(3,3-dimethylcyclobutyl)-7-methoxyimidazo[1,2-b]pyridazin-3-yl)-3,5-difluoro-N-((3S,4S)-4-fluoropyrrolidin-3-yl)pyridin-2-amine] |
| 26 | 74 | < 0.5 | COc1cc2ncc(-c3nc(N[C@H]4CNCC[C@@H]4F)c(F)cc3F)n2nc1C1CC(C)(C)C1 [Compound 9a, 6-(6-(3,3-dimethylcyclobutyl)-7-methoxyimidazo[1,2-b]pyridazin-3-yl)-3,5-difluoro-N-((3S,4S)-4-fluoropiperidin-3-yl)pyridin-2-amine] |
| 2 | 7 | < 0.5 | COc1cc2ncc(-c3nc(N[C@H]4CNC[C@@H]4F)c(F)cc3F)n2nc1C1CCCC1 [Compound 16a, 6-(6-cyclopentyl-7-methoxyimidazo[1,2-b]pyridazin-3-yl)-3,5-difluoro-N-((3S,4S)-4-fluoropyrrolidin-3-yl)pyridin-2-amine] |
| 2 | 7 | < 0.5 | COc1cc2ncc(-c3nc(N[C@@H]4CCCNC4)c(F)cc3F)n2nc1C1CCCC1 [Compound 17a, (R)-6-(6-cyclopentyl-7-methoxyimidazo[1,2-b]pyridazin-3-yl)-3,5-difluoro-N-(piperidin-3-yl)pyridin-2-amine] |
| 0.6 | 3 | < 0.5 | COc1cc2ncc(-c3nc(N[C@H]4CNCC[C@@H]4F)c(F)cc3F)n2nc1C1CCCC1 [Compound 18a, 6-(6-cyclopentyl-7-methoxyimidazo[1,2-b]pyridazin-3-yl)-3,5-difluoro-N-((3S,4S)-4-fluoropiperidin-3-yl)pyridin-2-amine] |
| 3 | 17 | < 0.5 | COc1cc2ncc(-c3nc(N[C@H]4CNC[C@@H]4F)c(F)cc3F)n2nc1C1CCCCC1 [Compound 19a, 6-(6-cyclohexyl-7-methoxyimidazo[1,2-b]pyridazin-3-yl)-3,5-difluoro-N-((3S,4S)-4-fluoropyrrolidin-3-yl)pyridin-2-amine] |
| 6 | 6 | < 0.5 | COc1cc2ncc(-c3nc(N[C@@H]4CCCNC4)c(F)cc3F)n2nc1C1CCCCC1 [Compound 20a, (R)-6-(6-cyclohexyl-7-methoxyimidazo[1,2-b]pyridazin-3-yl)-3,5-difluoro-N-(piperidin-3-yl)pyridin-2-amine] |
| 21 | 5 | < 0.5 | COc1cc2ncc(-c3nc(N[C@H]4CNCC[C@@H]4F)c(F)cc3F)n2nc1C1CCCCC1 [Compound 21a, 6-(6-cyclohexyl-7-methoxyimidazo[1,2-b]pyridazin-3-yl)-3,5-difluoro-N-((3S,4S)-4-fluoropiperidin-3-yl)pyridin-2-amine] |
| 9 | 55 | < 0.5 | COc1cc2ncc(-c3nc(N[C@H]4CNCC[C@@H]4F)c(F)cc3F)n2nc1N1CCCC1=O [Compound 22a, 1-(3-(3,5-difluoro-6-(((3S,4S)-4-fluoropiperidin-3-yl)amino)pyridin-2-yl)-7-methoxyimidazo[1,2-b]pyridazin-6-yl)pyrrolidin-2-one] |
